The record followed here is patent US5688807A, “Method for treating 5HT2B receptor related conditions” (Eli Lilly and Company, priority 1995, dated 1997).

One test addresses Human 5-HT2A (Homo sapiens, UniProt P28223). The test can be described thus: [125I]DOI radioligand binding, human 5-HT2A.
The next test has as its target T1, Human 5-HT2B (Homo sapiens, UniProt P41595).
T1 construct: expressed in transfected cells
The test can be described thus: [3H]Serotonin radioligand binding, human 5-HT2B.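 Further: competition of tritiated serotonin binding to cell membranes, bound radioactivity on filters counted by liquid scintillation, IC50 from logistic fits converted to Ki with the Cheng-Prusoff equation.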

A further test deals with rat 5-HT2B receptor (Rattus norvegicus, UniProt P30994). The experiment in a line: biochemical. The note with it: for pKi: [3H]Serotonin, 5-HT2B cells, AVG. The test is classed as binding.
Chain of rat 5-HT2B receptor (P30994 whole entry): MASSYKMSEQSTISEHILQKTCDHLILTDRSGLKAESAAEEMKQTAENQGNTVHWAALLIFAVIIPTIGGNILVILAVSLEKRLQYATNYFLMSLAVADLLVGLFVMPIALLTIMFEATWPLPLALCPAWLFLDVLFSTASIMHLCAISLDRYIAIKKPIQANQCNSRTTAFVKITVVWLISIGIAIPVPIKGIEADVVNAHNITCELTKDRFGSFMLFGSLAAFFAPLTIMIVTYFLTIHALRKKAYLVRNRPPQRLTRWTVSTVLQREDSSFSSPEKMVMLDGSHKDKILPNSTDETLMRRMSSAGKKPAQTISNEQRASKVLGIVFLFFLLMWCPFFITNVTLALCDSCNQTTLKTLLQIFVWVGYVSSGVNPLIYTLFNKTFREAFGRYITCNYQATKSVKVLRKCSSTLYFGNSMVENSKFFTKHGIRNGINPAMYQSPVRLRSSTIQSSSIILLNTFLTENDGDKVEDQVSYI
In test [1] the target is 5-HT2B receptor (rat stomach fundus) (Rattus norvegicus, UniProt P30994). As to conditions: rat stomach fundus; vs serotonin; ± standard error; read-out: 5-HT2B (Fundus) -log KB (converted).
Chain of 5-HT2B receptor (rat stomach fundus) (P30994 whole entry): as above
Setting [2] is: [3H]Serotonin, 5-HT2B cells, AVG, read-out: Ki Human 5-HT2B.

pKi: −log10 of the molar value. Structures can show the parent of a compound that is named as a salt. Where two headings read alike, the source gives them in different places.
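Wherever 5-HT2B (Fundus) -log KB is given: isometric contraction of isolated male Wistar rat stomach fundus strips, serotonin concentration-response curves after antagonist incubation, KB from dose ratio of agonist potency versus control curve.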
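Wherever Ki Rat 5-HT2B is given: displacement of [3H]5-HT from membranes of suspension cells carrying cloned rat 5-HT2B receptor, incubated 15 min at 37 °C or 2 h at 0 °C, filter-bound radioactivity counted by scintillation.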

T1 sequence (P41595 whole entry): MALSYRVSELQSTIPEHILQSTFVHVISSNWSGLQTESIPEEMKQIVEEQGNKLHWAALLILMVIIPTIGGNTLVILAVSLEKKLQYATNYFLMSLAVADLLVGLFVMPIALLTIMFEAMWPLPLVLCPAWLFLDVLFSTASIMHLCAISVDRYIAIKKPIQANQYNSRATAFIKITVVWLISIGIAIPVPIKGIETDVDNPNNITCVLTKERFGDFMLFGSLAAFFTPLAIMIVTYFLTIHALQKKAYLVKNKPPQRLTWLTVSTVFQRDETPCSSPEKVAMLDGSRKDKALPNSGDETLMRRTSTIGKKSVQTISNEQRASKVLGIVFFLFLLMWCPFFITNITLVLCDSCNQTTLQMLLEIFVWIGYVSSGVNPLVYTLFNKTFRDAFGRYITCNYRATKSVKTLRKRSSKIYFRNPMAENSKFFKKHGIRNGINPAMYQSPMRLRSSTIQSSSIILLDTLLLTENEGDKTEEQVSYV
Chain of Human 5-HT2A (P28223 whole entry): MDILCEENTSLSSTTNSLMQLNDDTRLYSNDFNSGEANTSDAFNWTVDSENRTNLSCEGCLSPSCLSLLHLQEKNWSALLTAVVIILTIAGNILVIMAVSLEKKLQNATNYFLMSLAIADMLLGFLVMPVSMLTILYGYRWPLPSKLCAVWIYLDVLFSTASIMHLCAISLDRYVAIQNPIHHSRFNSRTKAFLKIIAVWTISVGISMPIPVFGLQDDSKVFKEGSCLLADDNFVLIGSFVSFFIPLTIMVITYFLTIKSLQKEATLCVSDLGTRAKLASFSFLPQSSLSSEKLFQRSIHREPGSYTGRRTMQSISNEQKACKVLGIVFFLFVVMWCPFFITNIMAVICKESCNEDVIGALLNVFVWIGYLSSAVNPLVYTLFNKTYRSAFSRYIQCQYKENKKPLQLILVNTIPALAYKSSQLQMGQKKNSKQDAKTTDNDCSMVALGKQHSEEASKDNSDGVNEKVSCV

On to `COc1ccc(CC2NCCc3c2[nH]c2c(C)cccc32)cc1OC` (stereo not drawn) [drawing 182], for which the pKi was 7.30 on Human 5-HT2A and 8.77 on Human 5-HT2B (setting [2]). With `COc1ccc(C(C)C2NCCc3c2[nH]c2ccc(C)cc32)cc1OC` (single isomer, unassigned), the negative-log Ki (pKi) on Human 5-HT2A is 6.43; on rat 5-HT2B receptor (read-out: Ki Rat 5-HT2B), 7.52; at Human 5-HT2B (setting [2]) it was 8.26. As to `CC(C)n1cc2c3c(cccc31)C1CC(C(=O)NCCN3CCN(c4ccccc4)CC3)CN(C)C1C2` (stereo not drawn), the pKi is 7.49 at Human 5-HT2A (Ki Human 5-HT2A, [125I]DOI, AVG) and 7.93 at rat 5-HT2B receptor (Ki Rat 5-HT2B). On to `NCCc1c[nH]c2ccc(C(N)=O)cc12`, for which the negative-log Ki (pKi) on Human 5-HT2A was 6.92; at rat 5-HT2B receptor (read-out: Ki Rat 5-HT2B), 6.83; at Human 5-HT2B (setting [2]), 6.89.

As for `COc1ccc(CC2NCCc3c2[nH]c2ccc(C)cc32)c(Br)c1OC` (stereo not drawn), the pKi was 7.91 on Human 5-HT2A and 9.43 at Human 5-HT2B. Take `COc1ccc(CC2NCCc3c2[nH]c2c(Cl)c(C)ccc32)cc1OC` (stereo not drawn): the negative-log Ki (pKi) was 9.03 on Human 5-HT2A, 8.50 on rat 5-HT2B receptor (read-out: Ki Rat 5-HT2B) and 9.08 on Human 5-HT2B (setting [2]). For the molecule `Cc1ccc2[nH]c3c(c2c1)CCNC3C(C)c1cccc2ccccc12` (stereo not drawn), the negative logarithm of the Ki (pKi) was 8.25 at Human 5-HT2A, 8.40 on rat 5-HT2B receptor (read-out: Ki Rat 5-HT2B) and 8.89 on Human 5-HT2B (setting [2]). `c1ccc2c(N3CCNCC3)cccc2c1`: the negative-log Ki (pKi) on rat 5-HT2B receptor (read-out: Ki Rat 5-HT2B) was 8.35; on Human 5-HT2B, 8.42.

Consider `CCCN(CCC)C1CCc2cccc(-c3ccno3)c2C1` (stereo not drawn), for which the negative logarithm of the Ki (pKi) at Human 5-HT2A (read-out: Ki Human 5-HT2A, [125I]DOI, AVG) is 6.45; on Human 5-HT2B (setting [2]), 6.29. Regarding `Cc1ccc2[nH]c3c(c2c1)CCNC3C(C)c1cccc2ccccc12` (racemic) [Example 49, (±) 6-methyl-1-(1-naphthalenyl-1-ethyl)-1,2,3,4-tetrahydro-9H-pyrido [3,4-b]indole (Z) 2-butenedioate], the Kb in test [1] was around 0.0389 nM. Besides, the Ki at rat 5-HT2B receptor (Radioligand assay, Table III, read-out: pKi (converted)) is 3.98 nM. As for `COc1ccc(CC2NCCc3c2[nH]c2ccc(C)cc32)cc1OC` (stereo not drawn) [drawing 144], the pKi on Human 5-HT2A is 7.55. Regarding `Cc1ccc2c(c1)c1c(n2C)C(Cc2cccc3ccccc23)NCC1` (racemic) [Example 63, (+/-) 6,9-dimethyl-1,2,3,4-tetrahydro-1-(1-naphthalenylmethyl)-9H-pyrido [3,4-b] indole hydrochloride], the Kb in test [1] is 0.813 nM.

On to `COc1ccc(CC2NCCc3c2[nH]c2ccc(C)c(F)c32)cc1OC` (stereo not drawn) [Example 9, 5-fluoro-6-methyl-1-[(3,4-dimethoxyphenyl)-methyl]-1,2,3,4-tetrahydro-9H-pyrido[3,4-b]indole], for which the Kb in test [1] is 0.501 nM. In the case of `COc1ccc(CC2NCCc3c2[nH]c2c(C)cccc32)cc1OC` (stereo not drawn) [Example 1, 8-methyl-1-[(3,4-dimethoxyphenyl)methyl]-1,2,3,4-tetrahydro-9H-pyrido[3,4-b]indole], the Kb in test [1] is 1 nM.

The molecule `CC(N)Cc1c[nH]c2ccc(O)cc12` (stereo not drawn) had a pKi on Human 5-HT2B of 7.92.

For the molecule `COc1ccc(CC2NCCc3c2[nH]c2ccc(C4CCCCC4)cc32)cc1OC` (stereo not drawn) [Example 11, 6-cyclohexyl-1-[(3,4-dimethoxyphenyl)-methyl]-1,2,3,4-tetrahydro-9H-pyrido[3,4-b]indole hydrochloride], in test [1], the Kb was above 30.2 nM. Take `CCCN(CCC)[C@H]1CCc2cccc(-c3ccon3)c2C1`: the pKi on Human 5-HT2A is 5.24; at Human 5-HT2B (setting [2]) it was 6.59. On to `CCCNC1CCc2cccc(-c3ccno3)c2C1` (stereo not drawn), for which the values for the pKi on Human 5-HT2A and at Human 5-HT2B (setting [2]) were 5.22 and 5.99, respectively. In the case of `CCc1ccc2[nH]c3c(c2c1)CCNC3C(C)c1ccc(OC)c(OC)c1` (racemic) [Example 42, (±) 6-ethyl-1-[(3,4-dimethoxyphenyl)-1-ethyl]-1,2,3,4-tetrahydro-9H-pyrido[3,4-b]indole (Z)-2-butenedioate], the Kb in test [1] was 0.275 nM. Consider `COc1ccc(CC2NCCc3c2[nH]c2cc(C)cc(C)c32)cc1OC` (stereo not drawn) [Example 15, 5,7-dimethyl-1,2,3,4-tetrahydro-1-[(3,4-dimethoxyphenyl)methyl]-9H-pyrido[3,4b]indole hydrochloride], for which, in test [1], the Kb was 0.457 nM. In turn, `CN1CC(C(=O)NC2CCCC2O)CC2c3cccc4[nH]cc(c34)CC21` (stereo not drawn) had a pKi on Human 5-HT2B of 8.10.

On to `COc1ccc(CC2NCCc3c2[nH]c2ccc(Br)cc32)cc1OC` (stereo not drawn) [Example 18, 6-bromo-1,2,3,4-tetrahydro-1-[(3,4-dimethoxyphenyl)methyl]-9H-pyrido[3,4b]indole], for which the Kb in test [1] is 1.58 nM.

As to `c1ccc2c(CC3NCCc4c3[nH]c3c4ccc4ccccc43)cccc2c1` (racemic) [Example 60, (+/-) 7,8,9,10-tetrahydro-10-(1-naphthalenylmethyl)-11H-benzo [g] pyrido [3,4-b] indole (Z)-2-butenedioate], the Kb in test [1] is 1.2 nM. With `Cc1ccc2c3c([nH]c2c1Br)C(Cc1cccc2ccccc12)NCC3` (racemic) [Example 56, (±) 7-methyl-8-bromo-1-(1-naphthalenylmethyl)-1,2,3,4-tetrahydro-9H-pyrido [3,4-b]indole hydrochloride], the Kb in test [1] was around 29.5 nM. For `CC(C)n1cc2c3c(cccc31)C1CC(C(=O)NC3CCCC3O)CN(C)C1C2` (stereo not drawn), the pKi at Human 5-HT2A ([125I]DOI, AVG, read-out: Ki Human 5-HT2A) was 7.66; on Human 5-HT2B (read-out: Ki Human 5-HT2B, [3H]Serotonin, 5-HT2B cells, AVG), 8.65. For the molecule `COc1ccc(CC2NCCc3c2[nH]c2ccc(C(C)C)cc32)cc1OC` (stereo not drawn) [Example 13, 6-(1-methylethyl)-1,2,3,4-tetrahydro-1-[(3,4-dimethoxyphenyl)methyl]-9H-pyrido[3,4b]indole], the Kb in test [1] is 3.16 nM. Turning to `COc1ccc(CC2NCCc3c2[nH]c2ccc(C(C)(C)C)cc32)cc1OC` (stereo not drawn) [Example 8, 6-(1,1-dimethylethyl)-1-[(3,4-dimethoxyphenyl)methyl]1,2,3,4-tetrahydro-1-9H-pyrido-[3,4b]indole hydrochloride], the Kb in test [1] is 3.55 nM.

In the case of `CCCNC1CCc2cccc(C(C)=O)c2C1` (stereo not drawn), the pKi at Human 5-HT2B (setting [2]) was 5.75. As for `CC(C)(C)c1ccc2[nH]c3c(c2c1)CCNC3Cc1cccc2ccccc12` (racemic) [Example 61, (+/-) 6-(1,1-dimethylethyl)-1,2,3,4-tetrahydro-1-(1-naphthalenylmethyl)-9H-pyrido [3,4b] indole (Z)-2-butenedioate], the Kb in test [1] was 3.63 nM.

Consider `COc1ccc(CC2NCCc3c2[nH]c2c(F)cc(F)cc32)cc1OC` (stereo not drawn) [Example 6, 6,8-difluoro-1-[(3,4-dimethoxyphenyl)-methyl]-1,2,3,4-tetrahydro-9H-pyrido[3,4-b]indole], for which, in test [1], the Kb is 0.251 nM.

Regarding `CCCN(CCC)[C@@H]1CCc2cccc(-c3ccon3)c2C1`, the pKi at Human 5-HT2A was 6.90; on Human 5-HT2B (setting [2]), 6.11. Turning to `CCCN(CCC)C1CCc2cccc(C(=O)C(C)(C)C)c2C1` (single isomer, unassigned), the negative logarithm of the Ki (pKi) at Human 5-HT2A is 5.65; on Human 5-HT2B (setting [2]) it was 5.32. For `COc1ccc(C(C)C2NCCc3c2[nH]c2ccc(C(C)C)cc32)cc1OC` (stereo not drawn), in that order: 6.70 and 8.46. Regarding `COc1ccc(CC2NCCc3c2[nH]c2c3ccc3ccccc32)cc1OC` (stereo not drawn) [Example 10, 7,8,9,10-tetrahydro-10-[(3,4-dimethoxyphenyl)methyl]-11H-benzo[g]pyrido[3,4-b]indole], the Kb in test [1] is 0.603 nM.

`Brc1ccc2[nH]c3c(c2c1)CCNC3Cc1cccc2ccccc12` (racemic) [Example 55, (±) 6-bromo-1-(1-naphthalenylmethyl)-1,2,3,4-tetrahydro-9H-pyrido [3,4-b]indole (Z)-2-butenedioate]: in test [1], the Kb was 1.12 nM. Take `CC(C)c1ccc2[nH]c3c(c2c1)CCNC3Cc1cccc2ccccc12` (racemic) [Example 62, (+/-) 6-(1-methylethyl)-1,2,3,4-tetrahydro-1-(1-naphthalenylmethyl)-9H-pyrido [3,4b] indole (Z)-2-butenedioate]: the Kb in test [1] is 2.63 nM. On the same count and under the same terms, the figure for `COc1ccc(CC2c3[nH]c4ccc(C)cc4c3CCN2C)c(Cl)c1OC` (stereo not drawn) [Example 44, 2,6-dimethyl-1-[(2-chloro-3,4-dimethoxyphenyl)methyl]-1,2,3,4-tetrahydro-9H-pyrido[3,4-b]indole hydrochloride] is 3.98 nM. Consider `COc1cc(CC2NCCc3c2[nH]c2ccc(C)cc32)cc([N+](=O)[O-])c1OC` (stereo not drawn) [Example 28, 6-methyl-1-[(3,4-dimethoxy-5-nitrophenyl)-methyl]-1,2,3,4-tetrahydro-9H-pyrido[3,4-b]indole hydrochloride], for which the Kb in test [1] was 2.82 nM. As to `COc1ccc(CC2NCCc3c2[nH]c2c(C)cc(C)cc32)cc1OC` (stereo not drawn) [Example 14, 6,8-dimethyl-1,2,3,4-tetrahydro-1-[(3,4-dimethoxyphenyl)methyl]-9H-pyrido[3,4b]indole hydrochloride], the Kb in test [1] was 0.245 nM. Regarding `COc1cc(CC2NCCc3c2[nH]c2ccc(C)cc32)cc(I)c1OC` (stereo not drawn) [Example 29, 6-methyl-1-[(3-iodo-4,5-dimethoxy-phenyl)-methyl]-1,2,3,4-tetrahydro-9H-pyrido[3,4-b]indole], the Kb in test [1] is 7.59 nM. `COc1ccc(CC2NCCc3c2[nH]c2ccc(C)cc32)cc1O` (stereo not drawn): the pKi on Human 5-HT2A was 7.26; at Human 5-HT2B (setting [2]), 8.83. Taken in the same sequence, the figures for `CCc1ccc2[nH]c3c(c2c1)CCNC3Cc1cccc2ccccc12` (stereo not drawn) were 8.17 and 8.68. `COc1cc(CC2NCCc3c2[nH]c2ccc(C)cc32)cc(N)c1OC` (stereo not drawn) [Example 30, 6-methyl-1-[(3,4-dimethoxy-5-amino-phenyl)-methyl]-1,2,3,4-tetrahydro-9H-pyrido[3,4-b]indole dihydrochloride]: the Kb in test [1] is 1.29 nM. For `CCC(c1ccc(OC)c(OC)c1)C1NCCc2c1[nH]c1ccc(C)cc21` (racemic) [Example 43, (±) 6-methyl-1-[(3,4-dimethoxyphenyl)-1-propyl]-1,2,3,4-tetrahydro-9H-pyrido[3,4-b]indole (Z)-2-butenedioate], the Kb in test [1] was 0.363 nM.
